Reference: patent publication US20090143279A1 (priority 2007, published 2009)
Read-outs that look alike come from different tables or passages of the source.

What was measured:
[1] = tested on: mitochondrial membrane potential; type: cell-based, mouse
reactive oxygen species = type: cell-based, mouse
OXPHOS gene expression = type: cell-based, mouse
nuOXPHOS transcripts = type: cell-based, mouse
mtOXPHOS transcripts = type: cell-based, mouse
cytochrome c = type: cell-based, mouse
[2] = tested on: cellular dehydrogenase activity
[3] = composite Z-score vs DMSO wells, Conc 20 μM
[4] = composite Z-score vs DMSO, Conc 11.16 μM
[5] = composite Z-score vs mock-treated (DMSO) wells, Conc 20 μM
[6] = 20 μM, composite Z-score vs DMSO
[7] = 10.86 μM, composite Z-score vs DMSO
[8] = composite Z-score vs DMSO, Conc 20 μM
[9] = normalized composite Z-score vs mock-treated (DMSO) wells, Conc 20 μM

SMILES: C[C@]12C=CC(=O)C=C1CC[C@@H]1[C@@H]2C(=O)C[C@@]2(C)[C@H]1CC[C@]2(O)C(=O)CO [prednisone]
- ΔΨm [1, 3]: 0.258
- ΔΨm [1, 4]: −0.474
- ROS (reactive oxygen species; [3]): 0.253
- ROS (reactive oxygen species; [4]): 0.623
- GE-HTS (OXPHOS gene expression; [3]): −0.290
- GE-HTS (OXPHOS gene expression; [4]): −0.315
- nucOX (nuOXPHOS transcripts; [3]): −0.177
- nucOX (nuOXPHOS transcripts; [4]): −0.432
- mitoOX (mtOXPHOS transcripts; [3]): −0.473
- mitoOX (mtOXPHOS transcripts; [4]): −0.048
- cyt c (cytochrome c; [3]): −0.034
- cyt c (cytochrome c; [4]): −0.428
- Viability (C2C12 myotubes; [3]): −0.474
- Viability (C2C12 myotubes; [4]): −1.668
- MTT [2, 3]: −1.054
- MTT [2, 4]: −1.206

SMILES: CC(C)=CCOc1cc2oc(=O)ccc2cc1O [prenyletin]
- ΔΨm [1, 5]: 0.772
- ROS (reactive oxygen species; [5]): −0.090
- GE-HTS (OXPHOS gene expression; [5]): 0.113
- nucOX (nuOXPHOS transcripts; [5]): −0.015
- mitoOX (mtOXPHOS transcripts; [5]): 0.282
- cyt c (cytochrome c; [5]): 0.150
- Viability (C2C12 myotubes; [5]): 0.919
- MTT [2, 5]: −1.166

SMILES: CCCC(C(=O)OCCN(CC)CC)(c1ccccc1)c1ccccc1 [proadifen]
- ΔΨm [1]: −0.557
- ΔΨm [1, 6]: −0.654
- ROS (reactive oxygen species): 0.616
- ROS (reactive oxygen species; [6]): 0.678
- GE-HTS (OXPHOS gene expression): −0.364
- GE-HTS (OXPHOS gene expression; [6]): −0.377
- nucOX (nuOXPHOS transcripts): −0.414
- nucOX (nuOXPHOS transcripts; [6]): −0.243
- mitoOX (mtOXPHOS transcripts): −0.201
- mitoOX (mtOXPHOS transcripts; [6]): −0.595
- cyt c (cytochrome c): 0.223
- cyt c (cytochrome c; [6]): −0.077
- Viability (C2C12 myotubes): −0.388
- Viability (C2C12 myotubes; [6]): −1.715
- MTT [2]: −1.220
- MTT [2, 6]: −1.808

SMILES: CC(C)(Sc1cc(C(C)(C)C)c(O)c(C(C)(C)C)c1)Sc1cc(C(C)(C)C)c(O)c(C(C)(C)C)c1 [probucol]
- ΔΨm [1, 3]: −0.142
- ROS (reactive oxygen species; [3]): 0.464
- GE-HTS (OXPHOS gene expression; [3]): −0.053
- nucOX (nuOXPHOS transcripts; [3]): −0.002
- mitoOX (mtOXPHOS transcripts; [3]): −0.136
- cyt c (cytochrome c): −0.232
- cyt c (cytochrome c; [3]): −0.180
- Viability (C2C12 myotubes; [3]): −0.586
- MTT [2, 3]: −1.114

SMILES: CCCN(CCC)C(=O)C(CCC(=O)O)NC(=O)c1ccccc1 (stereo not drawn) [proglumide]
- ΔΨm [1, 6]: −0.910
- ROS (reactive oxygen species; [6]): 2.083
- GE-HTS (OXPHOS gene expression; [6]): −0.541
- nucOX (nuOXPHOS transcripts; [6]): −0.394
- mitoOX (mtOXPHOS transcripts; [6]): −0.730
- cyt c (cytochrome c): −0.001
- cyt c (cytochrome c; [6]): −0.033
- Viability (C2C12 myotubes; [6]): −0.750
- MTT [2, 6]: −1.254

SMILES: CC(C)[N+](C)(CCOC(=O)C1c2ccccc2Oc2ccccc21)C(C)C [propantheline]
- ΔΨm [1, 7]: −0.893
- ΔΨm [1, 6]: −0.082
- ROS (reactive oxygen species; [7]): 0.589
- ROS (reactive oxygen species; [6]): 2.062
- GE-HTS (OXPHOS gene expression; [7]): −0.301
- GE-HTS (OXPHOS gene expression; [6]): 0.458
- nucOX (nuOXPHOS transcripts; [7]): 0.104
- nucOX (nuOXPHOS transcripts; [6]): 0.254
- mitoOX (mtOXPHOS transcripts; [7]): −1.055
- mitoOX (mtOXPHOS transcripts; [6]): 0.783
- cyt c (cytochrome c; [7]): −0.615
- cyt c (cytochrome c; [6]): 0.379
- Viability (C2C12 myotubes; [7]): −0.361
- Viability (C2C12 myotubes; [6]): 0.142
- MTT [2, 7]: −1.670
- MTT [2, 6]: −1.026

SMILES: CC[C@@H](C)C(=O)O[C@H]1[C@H](O)[C@H]2[C@@H](CN3C[C@@H](C)CC[C@H]3[C@@]2(C)O)[C@@H]2C[C@]34O[C@]5(O)[C@@H](OC(=O)[C@@](C)(O)CC)CC[C@@]3(C)[C@@H]5[C@@H](OC(C)=O)[C@@H](OC(C)=O)[C@H]4[C@@]21O [protoveratrine A]
- ΔΨm [1, 8]: 0.394
- ROS (reactive oxygen species; [8]): −0.267
- GE-HTS (OXPHOS gene expression; [8]): −1.106
- nucOX (nuOXPHOS transcripts; [8]): −0.978
- mitoOX (mtOXPHOS transcripts; [8]): −1.108
- cyt c (cytochrome c; [8]): 1.155
- Viability (C2C12 myotubes; [8]): 0.243
- MTT [2, 8]: −0.100

SMILES: CC1=CCc2c(cc3oc(C)cc(=O)c3c2O)OC1 [ptaeroxylin]
- ΔΨm [1, 5]: 0.238
- ROS (reactive oxygen species; [5]): 0.259
- GE-HTS (OXPHOS gene expression; [5]): −0.853
- nucOX (nuOXPHOS transcripts; [5]): −0.907
- mitoOX (mtOXPHOS transcripts; [5]): −0.641
- cyt c (cytochrome c; [5]): 0.599
- Viability (C2C12 myotubes; [5]): −0.025
- MTT [2, 5]: 0.160

SMILES: CC1(O)/C=C\C=C(\CO)C2CC(C)(C)C2(O)CC1 (stereo not drawn) [punctaporin B]
- ΔΨm [1, 9]: −0.174
- ROS (reactive oxygen species; [9]): 0.731
- GE-HTS (OXPHOS gene expression; [9]): −0.242
- nucOX (nuOXPHOS transcripts; [9]): −0.049
- mitoOX (mtOXPHOS transcripts; [9]): −0.555
- cyt c (cytochrome c; [9]): 0.175
- Viability (C2C12 myotubes; [9]): 0.554
- MTT [2, 9]: −0.596

SMILES: CN1CCCN=C1/C=C/c1cccs1 [pyrantel pamoate]
- ΔΨm [1]: −2.829
- ROS (reactive oxygen species): 0.592
- GE-HTS (OXPHOS gene expression): −0.468
- nucOX (nuOXPHOS transcripts): −0.500
- mitoOX (mtOXPHOS transcripts): −0.327
- cyt c (cytochrome c): 0.640
- Viability (C2C12 myotubes): −1.934
- MTT [2]: −0.189

SMILES: CCc1nc(N)nc(N)c1-c1ccc(Cl)cc1 [pyrimethamine]
- ΔΨm [1, 3]: −0.696
- ROS (reactive oxygen species; [3]): 0.329
- GE-HTS (OXPHOS gene expression; [3]): −0.657
- nucOX (nuOXPHOS transcripts; [3]): −0.526
- mitoOX (mtOXPHOS transcripts; [3]): −0.825
- cyt c (cytochrome c): 1.048
- cyt c (cytochrome c; [3]): −0.306
- Viability (C2C12 myotubes; [3]): 0.994
- MTT [2, 3]: −1.810

SMILES: [O-][n+]1ccccc1[S-].[O-][n+]1ccccc1[S-].[Zn+2] [pyrithione zinc]
- ΔΨm (composite Z-score vs DMSO) [1]: −3.529
- ROS (composite Z-score vs DMSO) (reactive oxygen species): −2.405
- GE-HTS (composite Z-score vs DMSO) (OXPHOS gene expression): −3.250
- nucOX (composite Z-score vs DMSO) (nuOXPHOS transcripts): −4.140
- mitoOX (composite Z-score vs DMSO) (mtOXPHOS transcripts): −0.770
- cyt c (composite Z-score vs DMSO) (cytochrome c): −4.773
- Viability (composite Z-score vs DMSO) (C2C12 myotubes): −5.339
- MTT (composite Z-score vs DMSO) [2]: −6.284
